The text below walks through data of PMC11402852, “Genotoxicity of selected cannabinoids in human lymphoblastoid TK6 cells” (Archives of Toxicology, 2024).

This data set relates to TK6 cells. As to the kind of experiment: Mitotic disturbance assay. Type of data set: cell-based, human. The settings on record: 6 h, without S9; CBG 30 µM, CBD 15 µM, CBC 15 µM, CBDV 40 µM, CBN 15 µM; vs solvent control. On the procedure:
The cells were treated for 6 h with CBG 30 µM, CBD 15 µM, CBC 15 µM, CBDV 40 µM, and CBN 15 µM. The positive control was vincristine sulphate 0.0121 µM, and the solvent control was DMSO. For the experiments with or without the S9 mix (final concentration 0.25%), TK6 cells were treated with either CBDV 40 µM or vincristine sulphate 10 ng/mL for 6 h. DMSO with or without S9 mix was used as control. Further procedure was as described for micronucleus experiments, except with direct harvest after cannabinoid treatment without the incubation period with cytochalasin B. Two slides were evaluated with a Nikon Eclipse 55i fluorescent microscope for each experimental condition. The independent experiments were conducted three times.
The cells were counted in categories apoptosis, interphase, prophase, metaphase, anaphase-telophase, disturbed metaphase, and disturbed anaphase-telophase in 1000 cells. The mitotic index was calculated as a sum of the number of cells in prophase, metaphase, anaphase-telophase, disturbed metaphase, and disturbed anaphase-telophase in 1000 cells. Disturbed metaphase and disturbed anaphase-telophase were defined as deviating from the usual appearance of mitoses. Disturbed mitoses were assessed in 100 mitotic cells per slide.

As for `C=C(C)[C@@H]1CCC(C)=C[C@H]1c1c(O)cc(CCCCC)cc1O` [CBD, cannabidiol], the Mitotic index entry is recorded as “significantly decreased the mitotic index”.
